These results are taken from patent US12545685B2 (Daiichi Sankyo Company, Limited, priority 2011, dated 2026).

This assay addresses T1, Mdm2/p53 binding (GST-Mdm2 / His-p53) (Homo sapiens, UniProt Q00987, L33E).
T1 construct: Mdm2 partial protein having Mdm2 amino acids at positions 25 to 108
As to the kind of experiment: Mdm2/p53 binding assay (HTRF, His-p53 and GST-Mdm2). Particulars: His-p53 (aa 1-132) and GST-Mdm2 (aa 25-108, L33E) 6.25 nM each; 25°C, 1 hour; values given as ranges. The gist of the method:
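Binding was detected by HTRF (ex 320 nm, em 620/665 nm) after 1 h at 25 °C, using Eu-cryptate anti-GST and XL665 anti-His antibodies. The protein pair was GST-Mdm2 (residues 25–108, L33E) with His-p53 (residues 1–132), each 6.25 nM in the protein dilution. T/C used no-compound control and no-p53 background, and IC50 came from sigmoid fitting.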

T1 sequence (Q00987 25-108 L33E): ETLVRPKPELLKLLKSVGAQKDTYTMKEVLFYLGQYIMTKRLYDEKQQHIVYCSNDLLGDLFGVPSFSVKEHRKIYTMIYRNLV

On to `NC(=O)[C@@H]1CC[C@@H](NC(=O)[C@@H]2NC3(CC(CF)(CF)C3)[C@@]3(C(=O)Nc4cc(Cl)ccc43)[C@H]2c2ccnc(Cl)c2F)CO1` [Example 158, (3′R, 4′S,5′R)—N-[(3R,6S)-6-carbamoyltetrahydro-2H-pyran-3-yl]-6″-chloro-4′-(2-chloro-3-fluoropyridin-4-yl)-3,3-bis(fluoromethyl)-2″-oxo-1″,2″-dihydrodispiro[cyclobutane-1,2′-pyrrolidine-3′,3″-indole]-5′-carboxamide], for which the IC50 was 1 to 50 nM.

Consider `CO[C@H]1C[C@@H](NC(=O)[C@@H]2NC3(CCC(C)(C)CC3)[C@@]3(C(=O)Nc4cc(Cl)ccc43)[C@H]2c2ccnc(Cl)c2)CO[C@@H]1CO` [Example 59, (3′R, 4′R, 5′B)-6″-chloro-4′-(2-chloropyridin-4-yl)-N-[(3R,5S,6R)-6-(hydroxymethyl)-5-methoxytetrahydro-2H-pyran-3-yl]-4,4-dimethyl-2″-oxo-1″,2″-dihydrodispiro[cyclohexane-1,2′-pyrrolidine-3′,3″-indole]-5′-carboxamide], for which the IC50 lay in the range of 50 to 100 nM.

`CN(C)C(=O)[C@H]1CC[C@H](NC(=O)[C@@H]2NC3(CC(CF)(CF)C3)[C@@]3(C(=O)Nc4cc(Cl)ccc43)[C@H]2c2cc(F)cc(Cl)c2)CC1` (relative stereo) [Example 168, (3′R, 4′R, 5′R)-6″-chloro-4′-(3-chloro-5-fluorophenyl)-N-[trans-4-(dimethylcarbamoyl)cyclohexyl]-3,3-bis(fluoromethyl)-2″-oxo-1″,2″-dihydrodispiro[cyclobutane-1,2′-pyrrolidine-3′,3″-indole]-5′-carboxamide] registered an IC50 of 100 to 500 nM.

`O=C(N[C@H]1CC[C@H](c2nnco2)CC1)[C@@H]1NC2(CC(CF)(CF)C2)[C@@]2(C(=O)Nc3cc(Cl)ccc32)[C@H]1c1ccnc(Cl)c1F` [Example 95, (3′R, 4′S,5′R)-6″-chloro-4′-(2-chloro-3-fluoropyridin-4-yl)-3,3-bis(fluoromethyl)-N-[trans-4-(1,3,4-oxadiazol-2-yl)cyclohexyl]-2″-oxo-1″,2′-dihydrodispiro[cyclobutane-1,2′-pyrrolidine-3′,3″-indole]-5′-carboxamide] yielded an IC50 of 50 to 100 nM.

`CC(=O)Nc1cc(Cl)cc([C@H]2[C@H](C(=O)N[C@H]3CC[C@H](O)CC3)NC3(CCC(C)(C)CC3)[C@@]23C(=O)Nc2cc(Cl)ccc23)c1` [Example 37, (3′R, 4′R, S′R)-4′-(3-acetamide-5-chlorophenyl)-6″-chloro-N-(trans-4-hydroxycyclohexyl)-4,4-dimethyl-2″-oxo-1″,2″-dihydrodispiro[cyclohexane-1,2′-pyrrolidine-3′,3″-indole]-5′-carboxamide] yielded an IC50 of 50 to 100 nM.

Compound `COCCNC(=O)[C@@H]1CC[C@@H](NC(=O)[C@@H]2NC3(CCC(C)(C)CC3)[C@@]3(C(=O)Nc4cc(Cl)ccc43)[C@H]2c2ccnc(Cl)c2F)CO1` [Example 128, (3′R, 4′S,5′R)-6″-chloro-4′-(2-chloro-3-fluoropyridin-4-yl)-N-{(3R,6S)-6-[(2-methoxyethyl)carbamoyl]tetrahydro-2H-pyran-3-yl}-4,4-dimethyl-2″-oxo-1″,2″-dihydrodispiro[cyclohexane-1,2′-pyrrolidine-3′,3″-indole]-5′-carboxamide] came in with an IC50 of 1 to 50 nM.

As to `NC(=O)C[C@@H]1CC[C@@H](NC(=O)[C@@H]2NC3(CC(CF)(CF)C3)[C@@]3(C(=O)Nc4cc(Cl)ccc43)[C@H]2c2cccc(Cl)c2F)CO1` [Example 149, (3′R, 4′S,5′R)—N-[(3R,6S)-6-(2-amino-2-oxoethyl)tetrahydro-2H-pyran-3-yl]-6″-chloro-4′-(3-chloro-2-fluorophenyl)-3,3-bis(fluoromethyl)-2″-oxo-1″,2″-dihydrodispiro[cyclobutane-1,2′-pyrrolidine-3′,3″-indole]-5′-carboxamide], the IC50 is 50 to 100 nM.

Regarding `CN(C)C(=O)C[C@@H]1CC[C@@H](NC(=O)[C@@H]2NC3(CCC(C)(C)CC3)[C@@]3(C(=O)Nc4cc(Cl)ccc43)[C@H]2c2ccnc(Cl)c2F)CO1` [Example 152, (3′R, 4′S,5′R)-6″-chloro-4′-(2-chloro-3-fluoropyridin-4-yl)-N-{(3R,6S)-6-[2-(dimethylamino)-2-oxoethyl]tetrahydro-2H-pyran-3-yl}-4,4-dimethyl-2″-oxo-1″,2″-dihydrodispiro[cyclohexane-1,2′-pyrrolidine-3′,3″-indole]-5′-carboxamide], the IC50 lay in the range of 1 to 50 nM.

As for `CO[C@]1(CO)CC[C@@H](NC(=O)[C@@H]2NC3(CCC(C)(C)CC3)[C@@]3(C(=O)Nc4cc(Cl)ccc43)[C@H]2c2cccc(Cl)c2F)CC1` [Example 74, (3′R, 4′S,5′R)-6″-chloro-4′-(3-chloro-2-fluorophenyl)-N-[trans-4-(hydroxymethyl)-4-methoxycyclohexyl]-4,4-dimethyl-2″-oxo-1″,2″-dihydrodispiro[cyclohexane-1,2′-pyrrolidine-3′,3″-indole]-5′-carboxamide], the IC50 was 50 to 100 nM.

For `CC1(C)CCC2(CC1)N[C@@H](C(=O)N[C@@H]1CC[C@@H](CS(C)(=O)=O)OC1)[C@H](c1ccnc(Cl)c1F)[C@]21C(=O)Nc2cc(Cl)ccc21` [Example 98, (3′R, 4′S,5′R)-6″-chloro-4′-(2-chloro-3-fluoropyridin-4-yl)-4,4-dimethyl-N-{(3R,6S)-6-[(methylsulfonyl)methyl]tetrahydro-2H-pyran-3-yl}-2″-oxo-1″,2″-dihydrodispiro[cyclohexane-1,2′-pyrrolidine-3′,3″-indole]-5′-carboxamide], the IC50 was in the range of 50 to 100 nM.

For the compound `CC(=O)N(CCO)C[C@@H]1CC[C@@H](NC(=O)[C@@H]2NC3(CCC(C)(C)CC3)[C@@]3(C(=O)Nc4cc(Cl)ccc43)[C@H]2c2ccnc(Cl)c2F)CO1` [Example 44], the IC50 is 1 to 50 nM.

Take `CC1(C)CCC2(CC1)N[C@@H](C(=O)N[C@H]1C[C@H](C(=O)NC3CCOCC3)C1)[C@H](c1ccnc(Cl)c1F)[C@]21C(=O)Nc2cc(Cl)ccc21` [Example 120, (3′R, 4′S,5′R)-6″-chloro-4′-(2-chloro-3-fluoropyridin-4-yl)-4,4-dimethyl-2″-oxo-N-[trans-3-(tetrahydro-2H-pyran-4-ylcarbamoyl)cyclobutyl]-1″,2″-dihydrodispiro[cyclohexane-1,2′-pyrrolidine-3′,3″-indole]-5′-carboxamide]: the IC50 fell in the range of 1 to 50 nM.

Compound `CO[C@H]1C[C@@H](NC(=O)[C@@H]2NC3(CCC(C)(C)CC3)[C@@]3(C(=O)Nc4cc(Cl)ccc43)[C@H]2c2cccc(Cl)c2F)CO[C@@H]1CO` [Example 43, (3′R, 4′S,5′R)-6″-chloro-4′-(3-chloro-2-fluorophenyl)-N-[(3R,5S,6R)-6-(hydroxymethyl)-5-methoxytetrahydro-2H-pyran-3-yl]-4,4-dimethyl-2″-oxo-1″,2″-dihydrodispiro[cyclohexane-1,2′-pyrrolidine-3′,3″-indole]-5′-carboxamide] displayed an IC50 of 100 to 500 nM.

Regarding `CC1(C)CCC2(CC1)N[C@@H](C(=O)N[C@@H]1CC[C@@H](c3nnco3)OC1)[C@H](c1cccc(Cl)c1F)[C@]21C(=O)Nc2nc(Cl)ccc21` [Example 52, (3′R, 4′S,5′R)-6″-chloro-4′-(3-chloro-2-fluorophenyl)-4,4-dimethyl-N-[(3R,6S)-6-(1,3,4-oxadiazol-2-yl)tetrahydro-2H-pyran-3-yl]-2″-oxo-1″,2″-dihydrodispiro[cyclohexane-1,2′-pyrrolidine-3′,3″-pyrrolo[2,3-b]pyridine]-5′-carboxamide], the IC50 is 50 to 100 nM.

In turn, `CNC(=O)C[C@@H]1CC[C@@H](NC(=O)[C@@H]2NC3(CCC(C)(C)CC3)[C@@]3(C(=O)Nc4cc(Cl)ccc43)[C@H]2c2ccnc(Cl)c2F)CO1` [Example 150, (3′R, 4′S,5′R)-6″-chloro-4′-(2-chloro-3-fluoropyridin-4-yl)-4,4-dimethyl-N-{(3R,6S)-6-[2-(methylamino)-2-oxoethyl]tetrahydro-2H-pyran-3-yl}-2″-oxo-1″,2″-dihydrodispiro[cyclohexane-1,2′-pyrrolidine-3′,3″-indole]-5′-carboxamide] gave an IC50 of 1 to 50 nM.

Usually IC50 stands for the point on the concentration scale where inhibition reaches its midpoint. A lower IC50 goes with inhibition by little substance.
